We go through four molecules from patent US20250304921A1 (University of Pittsburgh-Of The Commonwealth System of …, priority 2022, published 2025).

Entries after “also recorded” stand apart in the source; their conditions may differ. Residues, ends and D or L forms follow the SMILES beside them. *: point of attachment. Decanoyl = CCCCCCCCCC(=O)*; CH2Cl = ClC*

The test system of test [1] is rFeMV^US5Venus (6). The test is classed as cell-based, Feline morbillivirus (FeMV).
For test [2], the system named is rFeMV^US5Venus (6). The test is classed as cell-based, Feline morbillivirus (FeMV). The source holds these as a separate data set.
The subject of test [3] is rFeMV^US5Venus (6) or rFeMV^US5Venus (3). The test is classed as cell-based, Feline morbillivirus (FeMV).
A further test has as its system FeMV^US5FPB. In words: Western blot of AU1-tagged F glycoprotein processing (F0 to F1) in transfected cells. Conditions: E64d 20 μM vs DMSO; transfected CRFK cells, lysates at 2 d.p.t. The test is classed as cell-based, Feline morbillivirus (FeMV). As for the experimental part: (§1) CRFK cells were transfected with pCG-FeMV^US5F, pCG-FeMV^US5FAU1, or pCG-FeMV^US5FPB-AU1 in the absence or presence of the pan-cysteine protease inhibitor E64d. At 2 d.p.t. cell lysates were prepared. Medium was removed and the monolayers were rinsed twice with 1 ml cold D-PBS. Cold 1× RIPA buffer (Boston bioproducts; 200 μl) containing 1× HALT protease inhibitors (Thermo Fisher Scientific) was added to the monolayers and incubated on ice for 15 minutes. Monolayers were scraped into the buffer and transferred to cold 1.5 ml tubes. Lysates were incubated on ice for 30 minutes with intermittent vortexing before being centrifuged at 14,000 g for 15 minutes at 4° C. to pellet nuclei. The cleared supernatants were used to prepare samples for polyacrylamide gel electrophoresis (PAGE) by adding appropriate volumes of 4× NUPAGE™ LDS sample loading buffer and ×10 NUPAGE™ reducing agent (both Thermo Fisher Scientific Scientific). PAGE samples were heated to 70° C. for 10 minutes before separation of proteins on a 10% NUPAGE™ bis-TRIS polyacrylamide gel using the Xcell SureLock Mini-Cell system (Thermo Fisher Scientific Scientific) according to manufacturer's instructions. An aliquot of SeeBlue Plus2 Protein Standard was included on each gel to allow estimation of protein sizes. […]
(In general: In western blotting, separated proteins are transferred to a membrane and probed.)

A further test concerns FeMV^US5F. Described as above. The test is classed as cell-based, Feline morbillivirus (FeMV). Conditions: E64d 20 μM vs DMSO; transfected CRFK cells, lysates at 2 d.p.t. As for the experimental part: as §1
Test [4] deals with FeMV F and H glycoproteins. The test is classed as cell-based, Feline morbillivirus (FeMV).
For test [5], the system named is NiV^MA F and G glycoproteins. The test is classed as cell-based, Nipah virus (NiV).
In a further test the test system is FeMV^US5FPB protein. The test is classed as cell-based, Feline morbillivirus (FeMV).
Test [6] concerns CDV^RI F and H glycoproteins. The test is classed as cell-based.
The subject of test [7] is MV^KS F and H glycoproteins. The test is classed as cell-based.
In another test the test system is FeMV. Conditions: trypsin added during virus titration in CRFK cells; cited from earlier work.

Consider `CCCNC(=O)[C@H]1O[C@@H]1C(=O)N[C@H](C(=O)N1CCC[C@H]1C(=O)OC)[C@@H](C)CC` [CA-074Me], for which the “rFeMV^US5-induced cell-to-cell fusion (luciferase activity)” value (shortened to “rFeMV^US5-induced cell-to-cell fusion”) in the test with rFeMV^US5Venus (6) [1] is recorded as “reduced; also recorded: inhibited”. Also, in the test with rFeMV^US5Venus (6) [2], the “cell-to-cell fusion and spread by rFeMV^US5Venus (6) and rFeMV^US5Venus (3)” value was “prevented cell-to-cell fusion and spread”; the “spread of rFeMV^US5Venus (6) infection” value is reported as “limited to single cells with no spread from the initially infected cell”; the “virus entry and initial replication in cells” value was “can enter and initially replicate in cells equivalently to the no inhibitor control”. Moreover, the infectious virus titers entry in test [3] was “reduced the infectious virus titers by two logs”.
Turning to `CCOC(=O)[C@H]1O[C@@H]1C(=O)N[C@@H](CC(C)C)C(=O)NCCC(C)C` [E64d], the “FeMV^US5FPB (polybasic cleavage signal) F0 processing” value in the test with FeMV^US5FPB is “no longer prevented F0 glycoprotein processing”. Further, the “FeMV^US5F processing (F0 to F1 subunit)” value with FeMV^US5F was “prevented FeMV^US5F processing”. The “rFeMV^US5-induced cell-to-cell fusion” value in the test on rFeMV^US5Venus (6) [1] is listed as “reduced”. Further, in test [4], the FeMV glycoprotein-induced fusion entry is “significantly reduced; also recorded: inhibited”. Besides, in the test with rFeMV^US5Venus (6) [2], the “cell-to-cell fusion and spread by rFeMV^US5Venus (6) and rFeMV^US5Venus (3)” value was “prevented cell-to-cell fusion and spread”; the “spread of rFeMV^US5Venus (6) infection” value is given as “limited to single cells with no spread from the initially infected cell”; the “virus entry and initial replication in cells” value is “can enter and initially replicate in cells equivalently to the no inhibitor control”. Further, the “NiV^MA glycoprotein-induced fusion” value in test [5] is reported as “significantly reduced”. In addition, the “fusion activity with FeMV^US5FPB protein” value with FeMV^US5FPB protein is “no longer affected the fusion activity”. For the same molecule, in [3], the infectious virus titers result is “reduced the infectious virus titers by two logs”.
With `CCCCCCCCCC(=O)N[C@@H](CCCN=C(N)N)C(=O)N[C@H](C(=O)N[C@@H](CCCCN)C(=O)N[C@@H](CCCN=C(N)N)C(=O)CCl)C(C)C` [furin inhibitor I] (Decanoyl-RVKR-CH2Cl), the “rFeMV^US5-induced cell-to-cell fusion” value in the test with rFeMV^US5Venus (6) [1] is recorded as “no difference in luciferase activity”. Also, the FeMV glycoprotein-induced fusion entry in [4] was “unaffected”. The “spread of rFeMV^US5Venus (6) infection” value in the test on rFeMV^US5Venus (6) [2] was “had spread significantly”. Further, in the test on FeMV^US5FPB protein, the “fusion activity with FeMV^US5FPB protein” value is on record as “significantly reduced fusion”. The “CDV^RI glycoprotein-induced fusion” value in test [6] is given as “reduced”. Moreover, in test [7], the “MV^KS glycoprotein-induced fusion” value is reported as “reduced”.

B1: trypsin (protein, UniProt P00760 24-246, looked up)
Serine protease 1: IVGGYTCGANTVPYQVSLNSGYHFCGGSLINSQWVVSAAHCYKSGIQVRLGEDNINVVEGNEQFISASKSIVHPSYNSNTLNNDIMLIKLKSAASLNSRVASISLPTSCASAGTQCLISGWGNTKSSGTSYPDVLKCLKAPILSDSSCKSAYPGQITSNMFCAGYLEGGKDSCQGDSGGPVVCSGKLQGIVSWGSGCAQKNKPGVYTKVCNYVSWIKQTIASN
notes: exogenous protease added to fusion assays or virus titration
Consider B1, for which the “effect of trypsin on resultant virus titers” value in the test with FeMV is given as “did not augment the resultant virus titers”. Also, the “effect of exogenous trypsin on FeMV glycoprotein-induced cell-to-cell fusion” value in [4] is reported as “did not enhance fusion”.
